Eight molecules from patent publication US6645983B1, “Pharmaceutical compositions comprising 4-quinolones for treating cancers” (Laboratoire L. Lafon, priority 1999, dated 2003) can be followed below.

One series has as its system A-427. In words: MTT test, cytotoxic activity on non-clonogenic cell lines. The class given is cell-based. Conditions: Homo sapiens, 10^−5 M, 72 hours of incubation, control condition = 100%, mean value, read-out: mean optical density as percentage of control, A-427. As to the method: (§1) The principle of the MTT test is based on the mitochondrial reduction, by the metabolically active live cells, of the yellow-colored product MTT (3-(4,5-dimethylthiazol-2-yl)-2,5-diphenyltetrazolium bromide) to a blue-colored product, formazan. The amount of formazan thus obtained is directly proportional to the amount of live cells present in the culture well(s). This amount of formazan is measured by spectrophotometry.
(§2) The cell lines are maintained as a monolayer culture at 37° C. in stoppered culture dishes containing MEM 25 MM HEPES (Minimum Essential Medium) base medium. This medium is suited to the growth of a range of various mammalian diploid or primary cells. This medium is then supplemented with:
(§3) The 12 human cancer cell lines which were used were obtained from the American Type Culture Collection (ATCC, Rockville, Md., USA). These 12 cell lines are:
(§4) Experimentally, 100 μl of a cell suspension containing 20 000 to 50 000 (depending on the cell type used) cells/ml of culture medium are inoculated -in 96-well flat-bottomed multi-well plates and are left to stand in an incubator at 37° C., 5% CO2 and 70% humidity. After an incubation time of 24 hours, the culture medium is replaced with 100 μl of fresh medium containing either the various test compounds—at concentrations varying from 10^−5 to 10^−10 M—or the solvent having served for dissolving the products to be tested (control condition). […] The microplates are thus incubated for 3 hours at 37° C., then centrifuged for 10 minutes at 400 g. The yellowish solution of MTT is removed and the blue formazan crystals formed in the cell region are dissolved in 100 μl or DMSO. The microplates are then shaken for 5 minutes. […] Software incorporated in the spectrophotometer calculates the average optical density values and the standard deviation (SD) and standard error of mean (SEM) values.

A further series relates to A549. Described as above. It counts as cell-based. Conditions: Homo sapiens, 10^−5 M, 72 hours of incubation, control condition = 100%, mean value, read-out: mean optical density as percentage of control, A549. Here is the method:
as §1, §2, §3, §4

The next series concerns HCT-15. The series is described as above. It counts as cell-based. Conditions: Homo sapiens, 10^−5 M, 72 hours of incubation, control condition = 100%, mean value, read-out: mean optical density as percentage of control, HCT-16. As to the method: as §1, §2, §3, §4
The next series relates to LoVo. The series is described as above. The class given is cell-based. Conditions: Homo sapiens, 10^−5 M, 72 hours of incubation, control condition = 100%, mean value, read-out: mean optical density as percentage of control, LoVo. As to the method: as §1, §2, §3, §4
The subject of another series is MCF7. Described as above. It counts as cell-based. Conditions: Homo sapiens, 10^−5 M, 72 hours of incubation, control condition = 100%, mean value, read-out: mean optical density as percentage of control, MCF7. As to the method:
as §1, §2, §3, §4

The next series relates to PC-3. Described as above. The class given is cell-based. Conditions: Homo sapiens, 10^−5 M, 72 hours of incubation, control condition = 100%, mean value, read-out: mean optical density as percentage of control, PC-3. As to the method: as §1, §2, §3, §4
The next series relates to T-47D. Described as above. The class given is cell-based. Conditions: Homo sapiens, T47D; 10^−5 M, 72 hours of incubation, control condition = 100%, mean value; read-out: mean optical density as percentage of control, T-47D. Here is the method:
as §1, §2, §3, §4

In the next series the test system is U-373MG. Described as above. It counts as cell-based. Conditions: Homo sapiens, U373 MG; 10^−5 M, 72 hours of incubation, control condition = 100%, mean value; read-out: mean optical density as percentage of control, U-373MG. Here is the method: as §1, §2, §3, §4
A further series has as its system U-87MG. The series is described as above. It counts as cell-based. Conditions: Homo sapiens, U-87 MG; 10^−5 M, 72 hours of incubation, control condition = 100%, mean value; read-out: mean optical density as percentage of control, U-87MG. As to the method: as §1, §2, §3, §4
The subject of a further series is SW1088. The series is described as above. It counts as cell-based. Conditions: Homo sapiens, 10^−5 M, 72 hours of incubation, control condition = 100%, mean value, read-out: mean optical density as percentage of control, SW1088. As to the method: as §1, §2, §3
SW1088 (code ATCC: HTB-12) which is an astro-cytoma,
as §4

Another series deals with J82. The description is as above. It counts as cell-based. Conditions: Homo sapiens, 10^−5 M, 72 hours of incubation, control condition = 100%, mean value, read-out: mean optical density as percentage of control, J82. Here is the method:
as §1, §2, §3
(§5) J82 (code ATCC: HTB-1) and T24 (code ATCC: HTB-4) which are two bladder cancers,
as §4

The subject of a further series is T24. The description is as above. The class given is cell-based. Conditions: Homo sapiens, T-24; 10^−5 M, 72 hours of incubation, control condition = 100%, mean value; read-out: mean optical density as percentage of control, T24. Here is the method:
as §1, §2, §3, §5, §4

Series [1] is described as follows: Determination of the maximum tolerated dose (MTD). Conditions: B6D2F1/Jico, mouse, in vivo, ip; single intraperitoneal administration, doses 2.5 to 160 mg/kg, survival over 14 days. As to the method: The evaluation of the maximum tolerated dose was performed on 4- to 6-week-old B6D2F1/Jico mice. The compounds were administered intraperitoneally at increasing doses ranging from 2.5 to 160 mg/kg. The value of the MTD (expressed in mg/kg) is determined from the observation of the survival rate of the animals over a 14-day period after a single administration of the product under consideration. The change in weight of the animals is also monitored during this period. When the MTD value is greater than 160 mg/kg, the MTD value is considered as being 160 mg/kg by default.

The MTD is the largest dose that counted as tolerated. Read a high MTD as a wide tolerated range.

In the case of `CCOC(=O)Cn1cc(-c2ccc(OC)cc2)c(=O)c2c(OC)cc(OC)cc21` [CRL8360, Ethyl 2-[5,7-dimethoxy-3-(4-methoxyphenyl)-4-oxo-1,4-dihydro-1-quinolinyl]acetate], the viability at 10 µM in the series with A-427 is 71.3%; in the series with A549, 85.6%; with HCT-15, 91.8%; in the series on LoVo, 98.6%; in the series on MCF7, 95.3%; in the series with PC-3, 81.5%. Also, the viability at 10 µM with T-47D was found to be 82.1%; in the series on U-373MG, 88%; with U-87MG it was 97.6%; with SW1088 it was 75.1%; in the series with J82 it was 81.2%; in the series on T24, 87.5%. The maximum tolerated dose (MTD) at 14 day in series [1] is > 160 mg/kg.
For `COc1ccc(-c2cn(C)c3c(OC)ccc(OC)c3c2=O)cc1` [CRL8371], the viability at 10 µM came to 30.8% with A-427; 42.9% in the series on A549; 25.2% with HCT-15; 45.6% with LoVo; 45.6% in the series with MCF7; 54.2% in the series with PC-3. The viability at 10 µM turned out to be 49.3% in the series with T-47D; 42.8% in the series on U-373MG; 58.7% in the series with U-87MG; 40.8% with SW1088; 76.3% with J82; 52.2% with T24. For the same molecule, the maximum tolerated dose (MTD) at 14 day in series [1] turned out to be 40 mg/kg.
As to `COc1ccc(-c2cn(CC#N)c3cc(OC)cc(OC)c3c2=O)cc1` [CRL8372, [5,7-Dimethoxy-3-(4-methoxyphenyl)-4-oxo-1,4-dihydro-1-quinolinyl]acetonitrile], the viability at 10 µM with A-427 was 93.9%; with A549 it was 93.4%; in the series with HCT-15 it was 84.3%; with LoVo it was 83.9%; with MCF7, 96.6%; with PC-3 it was 110%. For the same molecule, the viability at 10 µM in the series with T-47D amounted to 65.7%; in the series with U-373MG, 94.8%; with U-87MG, 92.9%; in the series with SW1088, 98.1%; in the series with J82, 93%; with T24, 81.2%. Further, in series [1], the maximum tolerated dose (MTD) at 14 day was > 160 mg/kg.
As for `COc1ccc(-c2cn(C)c3cc(OC)cc(O)c3c2=O)cc1` [CRL8377, 5-Hydroxy-7-methoxy-3-(4-methoxyphenyl)-1-methyl-1,4-dihydro-4-quinolinone], the viability at 10 µM with A-427 is 26.5%; in the series with A549 it was 67%; in the series on HCT-15, 86.6%; in the series with LoVo, 85%; with MCF7 it was 104%; in the series on PC-3 it was 87.4%. For the same molecule, the viability at 10 µM with T-47D was 66.9%; in the series on U-373MG, 56.7%; in the series with U-87MG, 49.5%; with SW1088, 99.8%; with J82 it was 98.7%; with T24 it was 85%. Further, the maximal tolerated dose (MTD) at 14 day in [1] was > 160 mg/kg.
On to `COc1ccc(-c2cn(C)c3ccc(OC)cc3c2=O)cc1` [CRL8378, 6-Methoxy-3-(4-methoxyphenyl)-1-methyl-1,4-dihydro-4-quinolinone], for which the viability at 10 µM stood at 72.3% with A-427; 91% in the series on A549; 105% with HCT-15; 107% with LoVo; 93.5% in the series on MCF7; 100% in the series on PC-3. The viability at 10 µM in the series on T-47D was determined as 110%; in the series on U-373MG, 98.1%; in the series on U-87MG it was 73%; in the series with SW1088, 108%; in the series on J82 it was 99.6%; in the series with T24 it was 89.2%. The MTD at 14 day in series [1] is > 160 mg/kg.
For the molecule `COc1ccc2c(c1)c(=O)c(-c1ccccc1)cn2C` [CRL8379, 6-Methoxy-1-methyl-3-phenyl-1,4-dihydro-4-quinolinone], the viability at 10 µM in the series on A-427 was 94.2%; with A549 it was 94%; in the series with HCT-15 it was 106%; in the series on LoVo, 102%; in the series with MCF7, 91.6%; with PC-3, 99.2%. Moreover, the viability at 10 µM in the series with T-47D turned out to be 99.3%; in the series on U-373MG it was 113%; in the series with U-87MG, 95.3%; in the series with SW1088, 98.3%; in the series on J82 it was 101%; with T24 it was 102%. Besides, the MTD at 14 day in series [1] was > 160 mg/kg.
For `CCN(CC)C(=O)Cn1cc(-c2ccc(OC)cc2)c(=O)c2c(OC)ccc(OC)c21` [CRL8380, N,N-Diethyl-2-[5,8-dimethoxy-3-(4-methoxyphenyl)-4-oxo-1,4-dihydro-1-quinolinyl]acetamide], the viability at 10 µM in the series on A-427 was 89.3%; in the series with A549 it was 95%; with HCT-15, 103%; in the series on LoVo it was 108%; in the series with MCF7, 102%; in the series on PC-3, 102%. Further, the viability at 10 µM worked out at 88.1% with T-47D; 101% in the series on U-373MG; 87.5% in the series on U-87MG; 100% with SW1088; 98.9% in the series with J82; 94.9% in the series on T24. The maximum tolerated dose (MTD) at 14 day in series [1] was > 160 mg/kg.
`CCOC(=O)Cn1cc(-c2ccc(OC)cc2)c(=O)c2c(OC)ccc(OC)c21` [CRL8381, Ethyl 2-[5,8-dimethoxy-3-(4-methoxyphenyl)-4-oxo-1,4-dihydro-1-quinolinyl]acetate]: the viability at 10 µM came to 84.2% in the series on A-427; 73.8% with A549; 90.5% in the series on HCT-15; 105% in the series with LoVo; 67.2% in the series with MCF7; 79.1% in the series on PC-3. The viability at 10 µM with T-47D is 92.6%; in the series on U-373MG, 91.8%; with U-87MG, 48.1%; in the series on SW1088, 55.9%; in the series on J82 it was 90.9%; in the series on T24, 83.2%. Moreover, the maximum tolerated dose (MTD) at 14 day in series [1] is > 160 mg/kg.
